In PubChem BioAssay AID248 (DTP/NCI, 2004):
Several values for one entry are separate records, joined by “and”; a condition that tells them apart may be missing. Identical values can stand only once. Toxic doses and inconclusive results are not listed. Cut-off read from the data, not from the text of the source: active = T/C of 150% or more; inactive = T/C below 125%.

System: L1210 leukemia ip in BDF1 mice, survival T/C
Experiment: NCI In Vivo Anticancer Drug Screen. Data for tumor model L1210 Leukemia (intraperitoneal) in B6D2F1 (BDF1) mice
Conditions: endpoint: mean survival time, higher = longer survival
Method in brief: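 Read-out is survival time, reported as the treated-group measurement over the vehicle-control measurement.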

[1] = dose: 100.0 mg/kg/injection, schedule: Q01DX001 (ip), vehicle: saline
[2] = dose: 200.0 mg/kg/injection, schedule: Q01DX001 (ip), vehicle: saline
[3] = dose: 400.0 mg/kg/injection, schedule: Q01DX001 (ip), vehicle: saline
[4] = dose: 50.0 mg/kg/injection, schedule: Q01DX001 (ip), vehicle: saline
[5] = dose: 100.0 mg/kg/injection, schedule: Q01DX009 (ip), vehicle: saline with Tween-80
[6] = dose: 200.0 mg/kg/injection, schedule: Q01DX009 (ip), vehicle: saline with Tween-80
[7] = dose: 100.0 mg/kg/injection, schedule: Q04DX002 (ip), vehicle: saline
[8] = dose: 50.0 mg/kg/injection, schedule: Q01DX009 (ip), vehicle: Klucel (hydroxypropylcellulose) (HPC)
[9] = dose: 100.0 mg/kg/injection, schedule: Q01DX009 (ip), vehicle: Klucel (hydroxypropylcellulose) (HPC)
[10] = dose: 200.0 mg/kg/injection, schedule: Q01DX009 (ip), vehicle: Klucel (hydroxypropylcellulose) (HPC)
[11] = dose: 50.0 mg/kg/injection, schedule: Q01DX001 (ip), vehicle: Klucel (hydroxypropylcellulose) (HPC)
[12] = dose: 100.0 mg/kg/injection, schedule: Q01DX001 (ip), vehicle: Klucel (hydroxypropylcellulose) (HPC)
[13] = dose: 200.0 mg/kg/injection, schedule: Q01DX001 (ip), vehicle: Klucel (hydroxypropylcellulose) (HPC)
[14] = dose: 100.0 mg/kg/injection, schedule: Q04DX003 (ip), vehicle: saline with Tween-80
[15] = dose: 200.0 mg/kg/injection, schedule: Q04DX003 (ip), vehicle: saline with Tween-80

Measured: T/C

CCP(c1ccccc1)c1ccccc1
inactive: dose: 75.0 mg/kg/injection, schedule: Q01DX009 (ip), vehicle: saline sonified 101 % of control | dose: 100.0 mg/kg/injection, schedule: Q01DX001 (ip), vehicle: saline sonified 92 % of control | dose: 150.0 mg/kg/injection, schedule: Q01DX009 (ip), vehicle: saline sonified 94 % of control | dose: 200.0 mg/kg/injection, schedule: Q01DX001 (ip), vehicle: saline sonified 97 % of control | dose: 300.0 mg/kg/injection, schedule: Q01DX009 (ip), vehicle: saline sonified 106 % of control | dose: 400.0 mg/kg/injection, schedule: Q01DX001 (ip), vehicle: saline sonified 103 % of control

O=c1cc(CCc2ccccc2)cc[nH]1
inactive: [1] 97 % of control | [2] 103 % of control | [3] 111 % of control

CCCCCCCCCCNC(=S)NNC(=O)CCCC(=O)NNC(=S)NCCCCCCCCCC
inactive: [4] 96 % of control | [1] 96 % of control | [2] 90 % of control | [3] 96 % of control

Cc1cc(C(=O)O)c(C)cc1SSc1cc(C)c(C(=O)O)cc1C
inactive: dose: 75.0 mg/kg/injection, schedule: Q01DX001 (ip), vehicle: carboxymethylcellulose (CMC) 94 % of control | dose: 150.0 mg/kg/injection, schedule: Q01DX001 (ip), vehicle: carboxymethylcellulose (CMC) 94 % of control | dose: 300.0 mg/kg/injection, schedule: Q01DX001 (ip), vehicle: carboxymethylcellulose (CMC) 88 % of control

COc1cc(/C=C/C=C/C(=O)N2CCCCC2)ccc1O
inactive: [5] 88 % of control | [6] 92 % of control

CCCCc1cnc(NCCCC(N)C(=O)O)nc1 (centres undefined)
inactive: dose: 25.0 mg/kg/injection, schedule: Q04DX002 (ip), vehicle: saline 100 % of control | dose: 50.0 mg/kg/injection, schedule: Q04DX002 (ip), vehicle: saline 95 % of control | [7] 92 % of control

O=S1(=O)CC2(N3CCCCC3)CCCCC21 (centres undefined)
inactive: dose: 5.0 mg/kg/injection, schedule: Q01DX009 (ip), vehicle: saline 94 % of control | dose: 10.0 mg/kg/injection, schedule: Q01DX009 (ip), vehicle: saline 96 % of control

CCN(C(=O)c1ccc2c3c(cccc13)C=C2)c1ccccc1
inactive: [1] 104 % of control | [2] 98 % of control | [3] 98 % of control

CCOC(=O)Nc1cc(N)cc(NC(=O)OCC)c1
inactive: [8] 101 % of control | [9] 104 % of control | [10] 106 % of control

CC(=O)Nc1nc(-c2ccccc2)c(CCC=O)c(=O)[nH]1
inactive: [11] 93 % of control | [12] 96 % of control | [13] 104 % of control

COc1ccc(NC(=O)Nc2cc([N+](=O)[O-])ccc2C)cc1[N+](=O)[O-]
inactive: [9] 98 % of control | [10] 96 % of control | dose: 400.0 mg/kg/injection, schedule: Q01DX009 (ip), vehicle: Klucel (hydroxypropylcellulose) (HPC) 104 % of control

FC(F)(F)c1nn[nH]n1
inactive: [14] 101 % of control | [15] 108 % of control | dose: 400.0 mg/kg/injection, schedule: Q04DX003 (ip), vehicle: saline with Tween-80 103 % of control

CC(C)(C)OOC(=O)C1(F)CC1(c1ccccc1)c1ccccc1 (centres undefined)
inactive: [11] 100 % of control | [12] 100 % of control | [13] 109 % of control

CCOC(=O)c1ccc2cc(C(=O)c3ccccc3)ccc2n1
inactive: dose: 50.0 mg/kg/injection, schedule: Q01DX009 (ip), vehicle: saline 94 % of control | dose: 100.0 mg/kg/injection, schedule: Q01DX009 (ip), vehicle: saline 100 % of control | dose: 100.0 mg/kg/injection, schedule: Q04DX003 (ip), vehicle: saline 91 % of control | dose: 200.0 mg/kg/injection, schedule: Q04DX003 (ip), vehicle: saline 91 % of control | dose: 400.0 mg/kg/injection, schedule: Q04DX003 (ip), vehicle: saline 93 % of control

Cc1ccc(Nc2ccc(Nc3ccc(C)cc3)c3c2C(=O)c2c(O)ccc(O)c2C3=O)cc1
inactive: [13] 90 % of control | dose: 400.0 mg/kg/injection, schedule: Q01DX001 (ip), vehicle: Klucel (hydroxypropylcellulose) (HPC) 97 % of control

Nc1ccnc(Cl)c1N
inactive: dose: 50.0 mg/kg/injection, schedule: Q01DX009 (ip), vehicle: saline with Tween-80 111 % of control | dose: 50.0 mg/kg/injection, schedule: Q04DX003 (ip), vehicle: saline with Tween-80 97 % of control | [5] 111 % of control | [14] 101 % of control | [6] 109 % of control | [15] 95 % of control

CCNC(=O)c1csnn1
inactive: dose: 75.0 mg/kg/injection, schedule: Q01DX001 (ip), vehicle: other 98 % of control | dose: 150.0 mg/kg/injection, schedule: Q01DX001 (ip), vehicle: other 101 % of control | dose: 300.0 mg/kg/injection, schedule: Q01DX001 (ip), vehicle: other 104 % of control

O=S(=O)(O)CCl
inactive: [7] 106 % of control | dose: 200.0 mg/kg/injection, schedule: Q04DX002 (ip), vehicle: saline 120 % of control | dose: 400.0 mg/kg/injection, schedule: Q04DX002 (ip), vehicle: saline 102 % of control

CC(CO)(CO)N=Cc1ccccc1O.CC(CO)(CO)N=Cc1ccccc1O.[Co]
inactive: [4] 108 % of control | [1] 97 % of control | [2] 106 % of control

COC1OC2COc3ccccc3OC2C(NC#N)C1OC (centres undefined)
inactive: dose: 25.0 mg/kg/injection, schedule: Q01DX009 (ip), vehicle: Klucel (hydroxypropylcellulose) (HPC) 102 % of control | [8] 96 % of control | [9] 93 % of control and 87 % of control

CC[CH2][Pb]([CH2]CC)([CH2]CC)[O]C(=O)C1CCCCC1
inactive: dose: 1.5 mg/kg/injection, schedule: Q01DX009 (ip), vehicle: saline with Tween-80 100 % of control | dose: 1.5 mg/kg/injection, schedule: Q04DX003 (ip), vehicle: saline with Tween-80 106 % of control | dose: 3.0 mg/kg/injection, schedule: Q01DX009 (ip), vehicle: saline with Tween-80 100 % of control | dose: 3.0 mg/kg/injection, schedule: Q04DX003 (ip), vehicle: saline with Tween-80 116 % of control | dose: 6.0 mg/kg/injection, schedule: Q01DX009 (ip), vehicle: saline with Tween-80 104 % of control | dose: 6.0 mg/kg/injection, schedule: Q04DX003 (ip), vehicle: saline with Tween-80 104 % of control

[C](#Cc1ccccc1)[Hg][C]#Cc1ccccc1
inactive: dose: 100.0 mg/kg/injection, schedule: Q04DX003 (ip), vehicle: Klucel (hydroxypropylcellulose) (HPC) 103 % of control | dose: 200.0 mg/kg/injection, schedule: Q04DX003 (ip), vehicle: Klucel (hydroxypropylcellulose) (HPC) 94 % of control | dose: 400.0 mg/kg/injection, schedule: Q04DX003 (ip), vehicle: Klucel (hydroxypropylcellulose) (HPC) 96 % of control

Cc1cccc(Nc2nc(N)nc(N)c2N)c1
inactive: dose: 25.0 mg/kg/injection, schedule: Q01DX Z (ip), vehicle: saline 101 % of control | dose: 50.0 mg/kg/injection, schedule: Q01DX Z (ip), vehicle: saline 91 % of control

CCCCN1C(=O)c2c(Cl)c(Cl)c(Cl)c(Cl)c2C1=O
inactive: dose: 200.0 mg/kg/injection, schedule: Q04DX002 (ip), vehicle: other 94 % of control | dose: 400.0 mg/kg/injection, schedule: Q04DX002 (ip), vehicle: other 92 % of control

O=C(CSc1ccc(Cl)cc1)Nc1ccccc1
inactive: dose: 100.0 mg/kg/injection, schedule: Q04DX002 (ip), vehicle: gum acacia 92 % of control | dose: 200.0 mg/kg/injection, schedule: Q04DX002 (ip), vehicle: gum acacia 87 % of control | dose: 400.0 mg/kg/injection, schedule: Q04DX002 (ip), vehicle: gum acacia 89 % of control

C#CC(NCCC(C)CC(C)(C)C)C(C)C (centres undefined)
inactive: [14] 103 % of control | [15] 90 % of control

CCOP(=S)(OCC)OP(=S)(OCC)OCC
inactive: dose: 1.0 mg/kg/injection, schedule: Q01DX009 (ip), vehicle: other 108 % of control | dose: 1.0 mg/kg/injection, schedule: Q04DX003 (ip), vehicle: other 100 % of control | dose: 2.0 mg/kg/injection, schedule: Q01DX009 (ip), vehicle: other 90 % of control | dose: 2.0 mg/kg/injection, schedule: Q04DX003 (ip), vehicle: other 97 % of control | dose: 4.0 mg/kg/injection, schedule: Q04DX003 (ip), vehicle: other 100 % of control
